SMILES strings stand for the structures.

Experimental findings from ChEMBL document CHEMBL2074428, “New alpha(1)-adrenoceptor antagonists derived from the antipsychotic sertindole - carbon-11 labelling and pet examination of brain uptake in the cynomolgus monkey” (Nucl Med Biol, 2004) are described below.

In the data set the target is ATP-dependent translocase ABCB1 (Homo sapiens, UniProt P08183). Kind of data set: TP_TRANSPORTER: transepithelial transport in Caco2 cells. The format is functional, cell-based. The settings on record: caco-2.
ATP-dependent translocase ABCB1, sequence (P08183 whole entry): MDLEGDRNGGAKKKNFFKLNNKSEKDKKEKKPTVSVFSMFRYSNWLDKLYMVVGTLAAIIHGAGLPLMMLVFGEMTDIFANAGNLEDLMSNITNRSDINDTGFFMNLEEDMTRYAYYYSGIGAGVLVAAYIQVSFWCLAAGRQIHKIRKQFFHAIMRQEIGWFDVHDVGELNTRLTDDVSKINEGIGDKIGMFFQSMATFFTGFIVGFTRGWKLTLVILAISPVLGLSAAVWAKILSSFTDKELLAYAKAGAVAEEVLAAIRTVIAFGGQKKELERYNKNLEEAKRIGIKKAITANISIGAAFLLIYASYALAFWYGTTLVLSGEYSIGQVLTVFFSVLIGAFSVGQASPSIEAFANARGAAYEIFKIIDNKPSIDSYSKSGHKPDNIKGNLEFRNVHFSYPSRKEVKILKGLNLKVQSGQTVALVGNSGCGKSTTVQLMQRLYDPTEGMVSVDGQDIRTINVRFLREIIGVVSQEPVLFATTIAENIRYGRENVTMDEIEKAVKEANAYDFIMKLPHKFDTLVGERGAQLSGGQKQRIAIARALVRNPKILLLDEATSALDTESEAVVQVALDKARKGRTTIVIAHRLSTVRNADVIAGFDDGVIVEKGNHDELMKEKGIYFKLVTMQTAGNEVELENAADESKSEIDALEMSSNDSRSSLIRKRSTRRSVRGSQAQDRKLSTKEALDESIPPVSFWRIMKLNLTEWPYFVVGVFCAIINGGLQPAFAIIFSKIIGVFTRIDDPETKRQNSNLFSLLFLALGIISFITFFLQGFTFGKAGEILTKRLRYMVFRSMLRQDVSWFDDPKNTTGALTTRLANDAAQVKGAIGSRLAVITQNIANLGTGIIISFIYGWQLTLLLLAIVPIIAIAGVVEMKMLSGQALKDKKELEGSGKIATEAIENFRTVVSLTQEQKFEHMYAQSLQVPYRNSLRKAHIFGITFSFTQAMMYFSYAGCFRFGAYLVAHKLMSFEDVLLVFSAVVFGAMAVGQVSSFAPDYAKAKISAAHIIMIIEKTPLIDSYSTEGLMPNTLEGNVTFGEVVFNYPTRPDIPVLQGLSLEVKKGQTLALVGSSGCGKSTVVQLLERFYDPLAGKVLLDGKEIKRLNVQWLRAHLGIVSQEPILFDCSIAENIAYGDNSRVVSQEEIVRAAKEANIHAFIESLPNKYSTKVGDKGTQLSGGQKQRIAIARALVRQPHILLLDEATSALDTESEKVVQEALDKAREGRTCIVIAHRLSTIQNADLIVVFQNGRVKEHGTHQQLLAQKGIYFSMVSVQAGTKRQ

Take `[11CH3]n1cc(-c2ccc3c(c2)c(C2CCN(CCN4CCNC4=O)CC2)cn3-c2ccc(F)cc2)nn1`: the Activity entry is “substrate [+]”.
In the case of `[11CH3]n1nnc(-c2ccc3c(c2)c(C2CCN(CCN4CCNC4=O)CC2)cn3-c2ccc(F)cc2)n1` it was “substrate [+]”.
